Consider 3 molecules from paper PMC10578352, “Identification of a Protein Arginine Methyltransferase 7 (PRMT7)/Protein Arginine Methyltransferase 9 (PRMT9) Inhibitor” (Journal of Medicinal Chemistry, 2023).

One test addresses T1, PRMT7 (Homo sapiens, UniProt Q9NVM4).
T1 construct: PRMT7 (residues 2–692, C-terminus); with an N-terminal His-tag; His (N); purchased Reaction Biology Corporation
T1 sequence (Q9NVM4 2-692): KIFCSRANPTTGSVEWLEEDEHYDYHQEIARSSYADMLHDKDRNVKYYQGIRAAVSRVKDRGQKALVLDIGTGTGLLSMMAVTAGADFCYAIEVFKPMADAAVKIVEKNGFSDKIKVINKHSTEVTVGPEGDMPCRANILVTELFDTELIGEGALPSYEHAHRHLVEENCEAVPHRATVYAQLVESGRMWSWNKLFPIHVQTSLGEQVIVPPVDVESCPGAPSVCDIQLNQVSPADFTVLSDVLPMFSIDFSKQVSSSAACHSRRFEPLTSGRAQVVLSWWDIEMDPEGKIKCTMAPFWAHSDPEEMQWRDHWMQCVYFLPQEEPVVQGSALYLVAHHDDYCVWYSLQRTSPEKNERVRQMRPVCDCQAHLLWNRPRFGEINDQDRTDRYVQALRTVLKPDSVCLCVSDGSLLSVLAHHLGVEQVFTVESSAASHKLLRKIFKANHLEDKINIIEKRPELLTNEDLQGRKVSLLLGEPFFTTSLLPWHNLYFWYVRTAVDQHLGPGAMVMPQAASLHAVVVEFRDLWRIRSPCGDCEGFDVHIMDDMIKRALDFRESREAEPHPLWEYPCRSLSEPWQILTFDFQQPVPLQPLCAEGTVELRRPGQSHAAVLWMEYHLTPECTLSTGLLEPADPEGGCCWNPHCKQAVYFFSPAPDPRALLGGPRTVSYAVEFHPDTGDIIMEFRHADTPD
Also on record: method as in PMID 35482954. The following applies: heatmap of Figure 2; cited from earlier work.

In a further test the target is T2, PRMT1 (Homo sapiens, UniProt Q99873).
T2 construct: PRMT1 (residues 2–371, C-terminus); with an N-terminal GST-tag; GST (N); purchased Reaction Biology Corporation
T2 sequence (Q99873 2-371): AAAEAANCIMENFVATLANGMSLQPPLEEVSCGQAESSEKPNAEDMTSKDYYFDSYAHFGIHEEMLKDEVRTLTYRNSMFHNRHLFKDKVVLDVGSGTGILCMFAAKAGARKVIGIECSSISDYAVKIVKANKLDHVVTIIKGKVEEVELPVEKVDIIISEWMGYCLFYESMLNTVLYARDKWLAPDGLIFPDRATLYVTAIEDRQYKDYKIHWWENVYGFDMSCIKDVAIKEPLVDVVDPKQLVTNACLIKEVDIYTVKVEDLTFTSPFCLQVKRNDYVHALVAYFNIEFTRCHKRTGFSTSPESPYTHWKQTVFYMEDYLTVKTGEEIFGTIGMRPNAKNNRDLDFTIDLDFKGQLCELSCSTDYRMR
The test is described as follows: HotSpot radioisotope-based filter assay, PRMT1. Type of test: biochemical. Conditions: Figure 2; from IC50 values of ref 31. On the procedure: (§1) Then, ^3H-SAM (final concentration of 1 μM) was delivered into the reaction mixture to initiate the reaction. After incubation for 60 min at 30 °C, the reaction mixture was delivered to filter-paper for detection (as assessed by scintillation). Data were analyzed using Excel and GraphPad Prism 6.0 software (GraphPad Software Inc., San Diego, CA) for IC50 curve fits using sigmoidal dose vs response - variable slope (four parameters) equations.

The target in another test is T3, PRMT3 (Homo sapiens, UniProt O60678).
T3 construct: PRMT3 (residues 2–531, C-terminus); with an N-terminal His-tag; His (N); purchased Reaction Biology Corporation
T3 sequence (O60678 2-531): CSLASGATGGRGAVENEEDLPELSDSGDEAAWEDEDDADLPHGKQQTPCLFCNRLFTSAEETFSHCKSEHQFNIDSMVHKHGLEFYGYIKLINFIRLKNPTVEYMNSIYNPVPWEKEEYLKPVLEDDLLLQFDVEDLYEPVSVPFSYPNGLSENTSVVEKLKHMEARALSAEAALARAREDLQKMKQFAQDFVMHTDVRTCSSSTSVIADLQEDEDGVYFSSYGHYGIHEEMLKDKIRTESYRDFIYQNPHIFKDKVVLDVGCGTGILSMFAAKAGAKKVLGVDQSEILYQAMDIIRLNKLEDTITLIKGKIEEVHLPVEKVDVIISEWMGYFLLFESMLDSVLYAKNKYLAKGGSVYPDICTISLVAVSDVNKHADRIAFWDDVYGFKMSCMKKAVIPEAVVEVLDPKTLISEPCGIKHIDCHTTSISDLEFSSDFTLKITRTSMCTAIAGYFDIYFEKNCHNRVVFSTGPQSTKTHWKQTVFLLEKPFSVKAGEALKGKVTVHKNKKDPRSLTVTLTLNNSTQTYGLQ
As to the kind of experiment: HotSpot radioisotope-based filter assay, PRMT3. Type of test: biochemical. On the procedure:
as §1

The target of the next test is T4, PRMT4 (Homo sapiens, UniProt Q86X55).
T4 construct: PRMT4 (residues 2–608, C-terminus); with an N-terminal GST-tag; GST (N); purchased Reaction Biology Corporation
T4 sequence (Q86X55 2-608): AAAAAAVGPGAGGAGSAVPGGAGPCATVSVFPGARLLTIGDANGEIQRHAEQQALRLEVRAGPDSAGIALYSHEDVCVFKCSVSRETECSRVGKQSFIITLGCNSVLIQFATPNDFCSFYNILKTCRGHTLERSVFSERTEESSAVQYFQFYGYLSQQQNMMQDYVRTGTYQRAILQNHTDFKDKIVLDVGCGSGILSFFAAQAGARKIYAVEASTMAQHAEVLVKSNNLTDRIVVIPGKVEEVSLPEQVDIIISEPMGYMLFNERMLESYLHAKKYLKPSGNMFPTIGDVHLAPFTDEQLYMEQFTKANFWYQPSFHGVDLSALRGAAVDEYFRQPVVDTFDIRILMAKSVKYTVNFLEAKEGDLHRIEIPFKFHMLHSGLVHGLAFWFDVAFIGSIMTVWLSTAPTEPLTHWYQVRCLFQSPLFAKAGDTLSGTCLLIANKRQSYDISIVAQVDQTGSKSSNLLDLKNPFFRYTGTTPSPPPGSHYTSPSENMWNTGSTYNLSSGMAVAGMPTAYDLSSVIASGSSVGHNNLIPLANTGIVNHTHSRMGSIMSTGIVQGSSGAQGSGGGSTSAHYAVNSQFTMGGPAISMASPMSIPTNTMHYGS
The test is described as follows: HotSpot radioisotope-based filter assay, PRMT4. The format is biochemical. On the procedure: as §1

For the next test, the target named is T5, PRMT6 (Homo sapiens, UniProt Q96LA8).
T5 construct: PRMT6 (residues 2–375, C-terminus); with an N-terminal GST-tag; GST (N); purchased Reaction Biology Corporation
T5 sequence (Q96LA8 2-375): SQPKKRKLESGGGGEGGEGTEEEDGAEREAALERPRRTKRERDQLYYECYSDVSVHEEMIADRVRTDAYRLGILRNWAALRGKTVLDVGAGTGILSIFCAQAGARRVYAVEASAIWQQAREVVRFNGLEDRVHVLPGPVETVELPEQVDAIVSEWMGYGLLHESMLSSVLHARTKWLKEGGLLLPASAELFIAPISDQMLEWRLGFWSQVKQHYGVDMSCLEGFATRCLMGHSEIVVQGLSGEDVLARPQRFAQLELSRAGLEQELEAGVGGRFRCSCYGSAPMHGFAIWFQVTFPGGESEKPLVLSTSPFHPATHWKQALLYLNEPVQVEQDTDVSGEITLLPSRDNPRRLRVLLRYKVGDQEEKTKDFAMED
As to the kind of experiment: HotSpot radioisotope-based filter assay, PRMT6. Type of test: biochemical. On the procedure: as §1

The target of the next test is T6, PRMT8 (Homo sapiens, UniProt Q9NR22).
T6 construct: (residues 61–394, C-terminus); with C- and N-terminal His-tags; His (N); His (C); purchased Reaction Biology Corporation
T6 sequence (Q9NR22 61-394): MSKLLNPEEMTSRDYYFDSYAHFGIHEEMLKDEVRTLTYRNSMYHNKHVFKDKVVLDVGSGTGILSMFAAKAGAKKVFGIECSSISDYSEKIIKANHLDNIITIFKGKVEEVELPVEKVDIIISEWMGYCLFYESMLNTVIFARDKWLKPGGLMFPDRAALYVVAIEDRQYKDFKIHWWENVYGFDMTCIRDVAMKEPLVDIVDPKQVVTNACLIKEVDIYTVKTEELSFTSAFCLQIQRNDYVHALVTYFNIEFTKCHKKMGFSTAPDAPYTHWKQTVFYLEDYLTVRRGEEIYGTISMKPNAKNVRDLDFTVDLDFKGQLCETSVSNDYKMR
As to the kind of experiment: HotSpot radioisotope-based filter assay, PRMT8. The format is biochemical. On the procedure: as §1

The mark [1] stands for this setting: Figure 2, from IC50 values of ref 31.

In the case of `COC(=O)c1cc(O)c2cc(NC(=O)NCCCNC(=N)NC[C@H]3O[C@@H](n4cnc5c(N)ncnc54)[C@H](O)[C@@H]3O)ccc2c1` [1a], on PRMT7, the IC50 was 0.315 µM.

`COC(=O)c1cc(O)c2cc(NC(=O)NCCCCCNC(=N)NC[C@H]3O[C@@H](n4cnc5c(N)ncnc54)[C@H](O)[C@@H]3O)ccc2c1` [1c]: on PRMT1, the “selectivity index for PRMT7 over PRMT1” value is 38 fold. Also, on PRMT3 (setting [1]), the “selectivity index for PRMT7 over PRMT3” value was 97 fold. For the same molecule, the “selectivity index for PRMT7 over PRMT4” value on PRMT4 (setting [1]) is on record as 2 fold. Moreover, the “selectivity index for PRMT7 over PRMT6” value on PRMT6 (setting [1]) is 455 fold. The “selectivity index for PRMT7 over PRMT8” value at PRMT8 (setting [1]) is on record as 27 fold.

On to `COC(=O)c1cc(O)c2cc(NC(=O)NCCCNC(=N)NC[C@H]3O[C@@H](n4cnc5c(N)ncnc54)[C@H](O)[C@@H]3O)cc(C(F)(F)F)c2c1` [1j, Methyl 6-(3-(3-(3-(((2R,3S,4R,5R)-5-(6-Amino-9H-purin-9-yl)-3,4-dihydroxytetrahydrofuran-2-yl)methyl)guanidino)propyl)ureido)-4-hydroxy-8-(trifluoromethyl)-2-naphthoate], for which the IC50 turned out to be 14.9 µM against PRMT3 (5 μM histone H4, 3H-SAM 1 μM); 1.46 µM at PRMT4 (5 μM histone H3, 3H-SAM 1 μM); 49.7 µM against PRMT6 (5 μM GST-GAR, 3H-SAM 1 μM); 1.97 µM against PRMT8 (5 μM histone H4, 3H-SAM 1 μM).
